Data as given in publication PMC4277420, “Assessment of [^125I]WYE-230949 as a Novel Histamine H3 Receptor Radiopharmaceutical” (PLoS ONE, 2014).

Columns and labels:
[1] = In vivo microSPECT imaging of brain uptake; set-up: species or system rat
Protocol: (§1) Animal experiments were conducted under the UK Animals (Scientific Procedures) Act 1986. This work was approved by the ethical review committee at the University of Glasgow (PPL: 60/3436) prior to the start of study. Naïve male Sprague-Dawley rats (Harlan, UK), weighing 217 to 352 g were either conscious or anaesthetised (2.5–3% isoflurane via a tracheostomy and artificial ventilation in 70/30% N2O/O2) for the duration of the experiment. Anaesthetised rats had their respiration and temperature monitored throughout. [^125I]WYE-230949 was administered via a femoral vein cannula to anaesthetised rats or via the lateral tail vein to conscious rats. The injected dose for each rat was calculated by measuring the syringe in a dose calibrator before and after [^125I]WYE-230949 administration. The radioactive and radiochemical amounts administered to individual rats ranged from 12.6 to 24.5 MBq and 0.32 to 0.70 µg/kg respectively in all in vivo studies.
MicroSPECT imaging was performed in order to image the uptake of [^125I]WYE-230949 in the brain over time. SPECT scanning was performed using a MollyQ 50 microSPECT scanner (Neurophysics Corp., Shirley, MA, U.S.A.). Rats were anaesthetised for the duration of scan (2–3% isoflurane in 70/30% N2O/O2) and physiological parameters were maintained as described previously. The scanning protocol was designed to ensure that a forebrain slice encompassing structures dense in H3 bindings sites including cortex, striatum, hippocampus and thalamus was captured; the first slice being 14.4 mm caudal to the eyes, approximately at the level of the caudate nucleus. Scanning was commenced 12 min prior to intravenous injection of [^125I]WYE-230949 via the tail vein. Ten sequential coronal slices (400 µm/slice) were collected over a total scanning distance of 4 mm with a scanning time of 12 min per repetition. […] The mean intensity of the ROI in each slice of the SPECT images was measured by plotting a z-axis profile. […] Finally these values were expressed as % of injected dose per ml of tissue and plotted against time.

[2] = Ex vivo biodistribution; assay type: in vivo, rat; conditions: for brain uptake: i.v.
Protocol: as §1
Ex vivo biodistribution studies were performed in both conscious and anaesthetised rats in order to investigate the effect of anaesthesia on [^125I]WYE-230949 uptake. At 30 or 120 min following [^125I]WYE-230949 administration rats were killed by cervical dislocation. These time points were chosen based on the biological half life of [^125I]WYE-230949 determined from microSPECT imaging studies. Serial arterial blood sampling via a femoral artery cannula was performed in anaesthetised rats only. Blood was collected into heparin-coated tubes for analysis of plasma and into EDTA coated tubes for analysis of whole blood. At either 30 or 120 min following [^125I]WYE-230949 administration rats were killed by cervical dislocation and the brain, heart, lungs, kidneys and liver dissected. Samples were counted on a Gamma Scintillation Counter (Packard Cobra II D5010, UK) and counts per minute (cpm) converted to kBq using a standard curve. Radioactivity was corrected for decay of ^125I and expressed per sample weight and as a percentage of injected dose (%ID/g tissue).

[3] = Ex vivo HPLC analysis of rat plasma and brain samples (% parent compound); assay type: in vivo
Protocol: as §1
After intravenous injection of [^125I]WYE-230949 blood samples were obtained by terminal cardiac puncture from anaesthetised rats or via the lateral tail vein from conscious rats at either 30 or 120 min. Rats were then immediately killed by cervical dislocation and the brain removed. Plasma was separated from whole blood by centrifugation and the protein precipitated by combining 400 µl of plasma with 400 µl of ice-cold acetonitrile. A sample (200 µl) of the supernatant was made up to 1 ml with distilled water and injected onto the HPLC column. The brain was homogenised in 2 ml saline, protein precipitated by addition of 2 ml of ice-cold acetonitrile. Samples were then centrifuged (1300 rpm; 200×g) and the supernatant added to 1 ml acetonitrile before being centrifuged again (1300 rpm; 200×g). The acetonitrile was evaporated under a stream of argon gas and the remaining 1 ml injected onto the HPLC column. Analysis of the brain and plasma metabolite samples was performed using the analytical HPLC methodology described. The % parent compound present was calculated.

[4] = biological target: T1, histamine H3 receptor (Rattus norvegicus, UniProt Q9QYN8); assay: In vitro autoradiography on rat brain sections; assay type: binding; conditions: 5 nM radioligand, non-specific with 5 µM iodophenpropit
T1 construct: Sections (20 µm) cut from a frozen rat brain were pre-incubated in Tris-HCl buffer; from tissue
T1 sequence (Q9QYN8 whole entry): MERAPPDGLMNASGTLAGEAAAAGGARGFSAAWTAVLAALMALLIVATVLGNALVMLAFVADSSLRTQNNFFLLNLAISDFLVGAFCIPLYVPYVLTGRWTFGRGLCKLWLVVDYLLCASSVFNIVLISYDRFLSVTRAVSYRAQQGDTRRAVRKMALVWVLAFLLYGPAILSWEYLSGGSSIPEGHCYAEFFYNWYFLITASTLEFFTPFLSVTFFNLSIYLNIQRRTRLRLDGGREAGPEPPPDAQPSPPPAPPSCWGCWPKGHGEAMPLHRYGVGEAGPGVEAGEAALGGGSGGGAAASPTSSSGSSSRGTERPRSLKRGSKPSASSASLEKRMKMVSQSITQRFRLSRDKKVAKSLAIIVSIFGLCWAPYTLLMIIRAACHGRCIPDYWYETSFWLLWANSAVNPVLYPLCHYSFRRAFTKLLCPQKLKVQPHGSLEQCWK
Protocol: Sections (20 µm) cut from a frozen rat brain were pre-incubated in Tris-HCl buffer (50 mM, pH 7.4; EDTA 5 mM) for 15 min then incubated in 5 nM [^125I]WYE-230949 for 90 min at room temperature. Non-specific binding was defined in adjacent sections in the presence of 5 µM iodophenpropit dihydrobromide. Sections were washed (2×30 min in Tris buffer) and briefly (15 s) rinsed in distilled water before drying and apposition to Kodak Biomax for 24 h. These autoradiograms were generated only for visual comparison with those obtained ex vivo.

## O=C(c1ccc(Cn2cnc3cccc([125I])c32)cc1)N1CC[C@H](N2CCCC2)C1 [[^125I]WYE-230949]
[1]; first 12 min following i.v. injection, anaesthetised rats, n = 5
  maximum brain uptake (microSPECT): 0.14±0.01 % ID/ml
[1]; first 12 min post injection, rats
  maximum brain uptake (SPECT), as restated in discussion: 0.14 %ID/g
[1]; microSPECT time activity curve
  half-life in rat brain: 45.4 min
[2]; 30 min, anaesthetised rats
  brain uptake: 0.11 %ID/g
[2]; 30 min, conscious rats
  brain uptake: 0.06±0.01 %ID/g
[2]; 120 min, anaesthetised rats
  brain uptake: 0.06±0.01 %ID/g
[2]; 120 min, conscious rats
  brain uptake: 0.03±0.003 %ID/g
[2]; anaesthetised rats, n = 6
  peak radioactivity in plasma: 4.04±1.14 %ID/g of tissue
  peak radioactivity in whole blood: 3.14±0.26 %ID/g of tissue
  time of peak radioactivity in plasma: 0.38 ± 0.02 min
  time of peak radioactivity in whole blood: 0.50 ± 0.03 min
[3]; 30 minutes after injection
  parent compound remaining in plasma: less than 38%
[3]; Brain, 30 min, anaesthetised
  Percentage of parent compound detected: 27±4 (n = 3) %
[3]; Brain, 30 min, conscious
  Percentage of parent compound detected: 46±2 (n = 4) %
[3]; Brain, 120 min, anaesthetised
  Percentage of parent compound detected: 32±5 (n = 3) %
[3]; Brain, 120 min, conscious
  Percentage of parent compound detected: 36±6 (n = 4) %
[3]; Plasma, 30 min, anaesthetised
  Percentage of parent compound detected: 14±2 (n = 4) %
[3]; Plasma, 30 min, conscious
  Percentage of parent compound detected: 38±9 (n = 6) %
[3]; Plasma, 120 min, anaesthetised
  Percentage of parent compound detected: 3±3 (n = 4) %
[3]; Plasma, 120 min, conscious
  Percentage of parent compound detected: 8±5 (n = 4) %
[3]; after 120 min
  parent compound remaining in plasma: less than 8%
[4]
  regional distribution of binding in rat brain: corresponded with known histamine H3 receptor distribution
